Experimental data: patent US20190328691A1, “ANTIBIOTIC THERAPY” (Boulos & Cooper Pharmaceuticals Pty Ltd, priority 2015, published 2019)

What was measured:
[1] = system: Staphylococcus aureus (ATCC 29213); test: Checkerboard combination / MIC assay with S. aureus ATCC 29213; format: cell-based
How it was run: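 CLSI broth microdilution checkerboard in CAMHB, final inoculum 5×10^5 CFU/mL, 2% DMSO. Ramizol or Chlopam (11-point 2-fold) crossed with commercial antibiotics (7-point), each starting at 4× MIC; synergy assessed by FIC index (sum of MIC-in-combination/MIC-alone ratios; ≤0.5 synergy, >4 antagonism).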

[2] = system: Staphylococcus aureus (BAA-1717); test: Checkerboard combination / MIC assay with S. aureus BAA-1717 (MRSA); format: cell-based; settings: for Effect of individual antibiotic combinations: S. aureus BAA-1717
How it was run: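 CLSI broth microdilution checkerboard in CAMHB (5×10^5 CFU/mL, 2% DMSO final). Ramizol or Chlopam was tested in 11-point two-fold series against 7-point antibiotic titrations, starting at 4× MIC.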

MRSA strains = settings: cited from earlier work

SMILES: CN[C@H](CC(C)C)C(=O)N[C@H]1C(=O)N[C@@H](CC(N)=O)C(=O)N[C@H]2C(=O)N[C@H]3C(=O)N[C@H](C(=O)N[C@H](C(=O)O)c4cc(O)cc(O)c4-c4cc3ccc4O)[C@H](O)c3ccc(c(Cl)c3)Oc3cc2cc(c3O[C@@H]2O[C@H](CO)[C@@H](O)[C@H](O)[C@H]2O[C@H]2C[C@](C)(N)[C@H](O)[C@H](C)O2)Oc2ccc(cc2Cl)[C@H]1O [Vancomycin]
- FICI of combination with Chlopam ([1]; Chlopam 0.003906 μg/mL + labelled antibiotic at MIC of same cell, S. aureus ATCC 29213): 1.0
- MIC of antibiotic in combination with Chlopam ([1]; Chlopam 0.003906 μg/mL, S. aureus ATCC 29213): 1 µg/mL
- FICI of combination with Chlopam ([1]; Chlopam 0.0078125 μg/mL + labelled antibiotic at MIC of same cell, S. aureus ATCC 29213): 1.0
- MIC of antibiotic in combination with Chlopam ([1]; Chlopam 0.0078125 μg/mL, S. aureus ATCC 29213): 1 µg/mL
- FICI of combination with Chlopam ([1]; Chlopam 0.015625 μg/mL + labelled antibiotic at MIC of same cell, S. aureus ATCC 29213): 1.0
- MIC of antibiotic in combination with Chlopam ([1]; Chlopam 0.015625 μg/mL, S. aureus ATCC 29213): 1 µg/mL
- FICI of combination with Chlopam ([1]; Chlopam 0.125 μg/mL + labelled antibiotic at MIC of same line, S. aureus ATCC 29213): 0.8
- MIC of antibiotic in combination with Chlopam ([1]; Chlopam 0.125 μg/mL, S. aureus ATCC 29213): 0.5 µg/mL
- FICI of combination with Chlopam ([1]; Chlopam 0.25 μg/mL + labelled antibiotic at MIC of same cell, S. aureus ATCC 29213): 1.0
- MIC of antibiotic in combination with Chlopam ([1]; Chlopam 0.25 μg/mL, S. aureus ATCC 29213): 0.5 µg/mL
- Effect of individual antibiotic combinations ([1]; Chlopam and Vancomycin: 0.003901 and 1, 0.0078125 and 1, 0.015625 and 1, 0.125 and 0.5, 0.25 and 0.5 μg/mL, S. aureus ATCC 29213): additive effect
- FICI of combination with Ramizol ([1]; Ramizol 0.015625 μg/mL + labelled antibiotic at MIC of same cell, S. aureus ATCC 29213): 1.0
- MIC of antibiotic in combination with Ramizol ([1]; Ramizol 0.015625 μg/mL, S. aureus ATCC 29213): 1 µg/mL
- FICI of combination with Ramizol ([1]; Ramizol 0.03125 μg/mL + labelled antibiotic at MIC of same cell, S. aureus ATCC 29213): 1.0
- MIC of antibiotic in combination with Ramizol ([1]; Ramizol 0.03125 μg/mL, S. aureus ATCC 29213): 1 µg/mL
- FICI of combination with Ramizol ([1]; Ramizol 0.0625 μg/mL + labelled antibiotic at MIC of same cell, S. aureus ATCC 29213): 1.0
- MIC of antibiotic in combination with Ramizol ([1]; Ramizol 0.0625 μg/mL, S. aureus ATCC 29213): 1 µg/mL
- FICI of combination with Ramizol ([1]; Ramizol 0.125 μg/mL + labelled antibiotic at MIC of same cell, S. aureus ATCC 29213): 1.0
- MIC of antibiotic in combination with Ramizol ([1]; Ramizol 0.125 μg/mL, S. aureus ATCC 29213): 1 µg/mL
- Effect of individual antibiotic combinations ([1]; Ramizol and Vancomycin: 0.015625 and 1, 0.03125 and 1, 0.0625 and 1, 0.125 and 1 μg/mL, S. aureus ATCC 29213): additive effect
- MIC ([1]; Staphylococcus aureus, ATCC29213, read-out: MIC of antibiotic alone): 1 µg/mL
- MIC of antibiotic alone ([1]; Table 7, checkerboard series with Ramizol, S. aureus ATCC 29213): 1 µg/mL
- Effect of the combinations with Chlopam (by mean FICI) ([1]; labelled antibiotic + Chlopam, S. aureus ATCC 29213): additive effect
- mean FICI of combination with Chlopam ([1]; labelled antibiotic + Chlopam, mean of all pairwise combinations, S. aureus ATCC 29213): 1.0
- mean FICI of combination with Ramizol ([1]; labelled antibiotic + Ramizol, mean of all pairwise combinations, S. aureus ATCC 29213): 1.2
- FICI of combination with Chlopam ([2]; Chlopam 0.001953 μg/mL + labelled antibiotic at MIC of same cell, S. aureus ATCC BAA-1717): 1.0
- MIC of antibiotic in combination with Chlopam ([2]; Chlopam 0.001953 μg/mL, S. aureus ATCC BAA-1717): 1 µg/mL
- FICI of combination with Chlopam ([2]; Chlopam 0.003906 μg/mL + labelled antibiotic at MIC of same cell, S. aureus ATCC BAA-1717): 1.0
- MIC of antibiotic in combination with Chlopam ([2]; Chlopam 0.003906 μg/mL, S. aureus ATCC BAA-1717): 1 µg/mL
- FICI of combination with Chlopam ([2]; Chlopam 0.0078125 μg/mL + labelled antibiotic at MIC of same cell, S. aureus ATCC BAA-1717): 1.0
- MIC of antibiotic in combination with Chlopam ([2]; Chlopam 0.0078125 μg/mL, S. aureus ATCC BAA-1717): 1 µg/mL
- FICI of combination with Chlopam ([2]; Chlopam 0.015625 μg/mL + labelled antibiotic at MIC of same cell, S. aureus ATCC BAA-1717): 1.0
- MIC of antibiotic in combination with Chlopam ([2]; Chlopam 0.015625 μg/mL, S. aureus ATCC BAA-1717): 1 µg/mL
- FICI of combination with Chlopam ([2]; Chlopam 0.5 μg/mL + labelled antibiotic at MIC of same line, S. aureus ATCC BAA-1717): 1.0
- MIC of antibiotic in combination with Chlopam ([2]; Chlopam 0.5 μg/mL, S. aureus ATCC BAA-1717): 0.031 µg/mL
- Effect of individual antibiotic combinations ([2]; Chlopam and Vancomycin: 0.001953 and 1, 0.003901 and 1, 0.0078125 and 1, 0.015625 and 1 μg/mL): additive effect
- FICI of combination with Ramizol ([2]; Ramizol 0.015625 μg/mL + labelled antibiotic at MIC of same cell, S. aureus ATCC BAA-1717): 1.0
- MIC of antibiotic in combination with Ramizol ([2]; Ramizol 0.015625 μg/mL, S. aureus ATCC BAA-1717): 1 µg/mL
- FICI of combination with Ramizol ([2]; Ramizol 0.03125 μg/mL + labelled antibiotic at MIC of same cell, S. aureus ATCC BAA-1717): 1.0
- MIC of antibiotic in combination with Ramizol ([2]; Ramizol 0.03125 μg/mL, S. aureus ATCC BAA-1717): 1 µg/mL
- FICI of combination with Ramizol ([2]; Ramizol 0.0625 μg/mL + labelled antibiotic at MIC of same cell, S. aureus ATCC BAA-1717): 1.0
- MIC of antibiotic in combination with Ramizol ([2]; Ramizol 0.0625 μg/mL, S. aureus ATCC BAA-1717): 1 µg/mL
- FICI of combination with Ramizol ([2]; Ramizol 0.125 μg/mL + labelled antibiotic at MIC of same line, S. aureus ATCC BAA-1717): 1.0
- MIC of antibiotic in combination with Ramizol ([2]; Ramizol 0.125 μg/mL, S. aureus ATCC BAA-1717): 1 µg/mL
- FICI of combination with Ramizol ([2]; Ramizol 4 μg/mL + labelled antibiotic at MIC of same cell, S. aureus ATCC BAA-1717): 1.0
- MIC of antibiotic in combination with Ramizol ([2]; Ramizol 4 μg/mL, S. aureus ATCC BAA-1717): 0.031 µg/mL
- Effect of individual antibiotic combinations ([2]; Ramizol and Vancomycin: 0.015625 and 1, 0.03125 and 1, 0.0625 and 1, 0.125 and 1, 4 and 0.031 μg/mL): additive effect
- MIC ([2]; Staphylococcus aureus, ATCC BAA-1717 / BAA-1717, read-out: MIC of antibiotic alone): 1 µg/mL
- MIC of antibiotic alone ([2]; Table 7, checkerboard series with Ramizol, S. aureus ATCC BAA-1717): 1 µg/mL
- mean FICI of combination with Chlopam ([2]; labelled antibiotic + Chlopam, mean of all pairwise combinations, S. aureus ATCC BAA-1717): 1.2
- mean FICI of combination with Ramizol ([2]; labelled antibiotic + Ramizol, mean of all pairwise combinations, S. aureus ATCC BAA-1717): 1.2
- MIC (MRSA strains; MRSA strains fully resistant to vancomycin): ≥ 32 µg/mL
- minimum inhibitory concentration [MIC] (MRSA strains; MRSA strains with decreased susceptibility to vancomycin): 4 to 8 µg/mL
